Measurements as given in US20210330611A1, “THERAPY FOR NEUROLOGICAL DISEASES/DISORDERS” (priority 2020, published 2021).
“And” between values parts separate entries of the source, which are not always exact repeats. Equal entries are not always repeated. Structures can show the parent of a compound that is named as a salt. Where two headings read alike, the source gives them in different places.

What was measured:
[1] = test system: LPS-induced microglia activation; experiment: Image-based assay of LPS-induced microglia activation (HTS and dose response); type: cell-based, rat; conditions: for inhibition at 10 µM: read-out: LPS % inhibition
primary rat microglia [2] = experiment: Cell toxicity (dead cells, size <150 μm2) in coated fibrin (cFib) assay;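 further: share of dead cells sized under 150 µm2 at 10 µM in fibrin-stimulated microglia HTS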
[3] = test system: fibrin-induced microglia activation; experiment: Image-based assay of fibrin-induced microglia activation (HTS and dose response); type: cell-based, rat; conditions: for inhibition at 10 µM: read-out: Fibrin % inhibition
[4] = test system: fibrin- and LPS-induced microglia activation; experiment: cells; type: cell-based, rat
primary rat microglia [5] = experiment: Cell toxicity (dead cells, size <150 μm2) in LPS assay
[6] = Rattus norvegicus, Microglia, 48 h, primary microglia HTS, LPS stimulation, increased cell size (>800 μm^2) as marker of activation
[7] = primary microglia HTS, fibrin stimulation, decreased size (<150 μm^2) as marker of toxicity
[8] = Rattus norvegicus, Microglia, primary microglia HTS, fibrin stimulation, increased cell size (>800 μm^2) as marker of activation
[9] = quadrant by fibrin and LPS inhibition in HTS of 1907 compounds
[10] = primary microglia HTS, LPS stimulation, decreased size (<150 μm^2) as marker of toxicity
[11] = Rattus norvegicus, Microglia, 48 h, primary microglia HTS, LPS stimulation, activation = cell size >800 μm2
[12] = primary microglia HTS, fibrin stimulation, toxicity = cell size <150 μm2
[13] = Rattus norvegicus, Microglia, primary microglia HTS, fibrin stimulation, activation = cell size >800 μm2
[14] = primary microglia HTS, LPS stimulation, toxicity = cell size <150 μm2
[15] = Rattus norvegicus, Microglia, primary microglia HTS, 10 μM, LPS-stimulated, cell size >800 μm^2 as marker of activation
[16] = primary microglia HTS, 10 μM, fibrin assay, cell size <150 μm^2 as marker of toxicity
[17] = Rattus norvegicus, Microglia, primary microglia HTS, 10 μM, fibrin-stimulated, cell size >800 μm^2 as marker of activation
[18] = HTS of 1907 compounds, quadrant by fibrin and LPS inhibition
[19] = primary microglia HTS, 10 μM, LPS assay, cell size <150 μm^2 as marker of toxicity
[20] = Rattus norvegicus, Microglia, primary HTS, 10 μM, LPS-stimulated primary microglia
[21] = primary HTS, 10 μM, fibrin assay, dead cells size <150 μm2
[22] = Rattus norvegicus, Microglia, primary HTS, 10 μM, fibrin-stimulated primary microglia
[23] = primary HTS, 10 μM, LPS assay, dead cells size <150 μm2
[24] = primary microglia HTS, 10 μM, LPS-stimulated, cell size >800 μm^2 as marker of activation
[25] = primary microglia HTS, 10 μM, fibrin-stimulated, cell size >800 μm^2 as marker of activation

CC1(C)O[C@@H]2C[C@H]3[C@@H]4C[C@H](F)C5=CC(=O)CC[C@]5(C)[C@H]4[C@@H](O)C[C@]3(C)[C@]2(C(=O)CO)O1 [Flurandrenolide, reference compound]
inhibition at 10 µM [1, 6]: 98%
IC50 ([1]; Rattus norvegicus, Microglia, Table 7, read-out: LPS_IC50): 2 nM
Fibrin % cell toxicity (primary rat microglia [2]; [7]): 6% and 5%
IC50 ([3]; Rattus norvegicus, Microglia, Table 7, read-out: fib_IC50): 2 nM
inhibition at 10 µM [3, 8]: 110%
Quadrant (FIG. 5b) ([4]; Table 2, screen at 10 μM): Q2
Quadrant (FIG. 5b) [4, 9]: Q2
LPS % cell toxicity (primary rat microglia [5]; [10]): 5%

CCC(NC(C)C)C(O)c1ccc(O)c(O)c1 (stereo not shown) [Isoetarine]
inhibition at 10 µM [1, 11]: 23%
Fibrin % cell toxicity (primary rat microglia [2]; [12]): 1%
inhibition at 10 µM [3, 13]: 21%
Quadrant (FIG. 5b) [4, 9]: Q4
LPS % cell toxicity (primary rat microglia [5]; [14]): 0%

CCS(=O)(=O)CCn1c([N+](=O)[O-])cnc1C [Tinidazole]
inhibition at 10 µM [1, 15]: 14%
Fibrin % cell toxicity (primary rat microglia [2]; [16]): 0%
inhibition at 10 µM [3, 17]: 2%
Quadrant (FIG. 5b) [4, 18]: Q4
LPS % cell toxicity (primary rat microglia [5]; [19]): 1%

CNC(=O)c1c(I)c(NC(C)=O)c(I)c(C(=O)O)c1I [Iothalamic Acid]
inhibition at 10 µM [1, 11]: 7%
Fibrin % cell toxicity (primary rat microglia [2]; [12]): 1%
inhibition at 10 µM [3, 13]: 5%
Quadrant (FIG. 5b) [4, 9]: Q4
LPS % cell toxicity (primary rat microglia [5]; [14]): 0%

O=C(O)c1cc(-c2ccccc2)nc2ccccc12 [Cinchophen]
inhibition at 10 µM [1, 20]: 36%
Fibrin % cell toxicity (primary rat microglia [2]; [21]): 1%
inhibition at 10 µM [3, 22]: -9%
Quadrant (FIG. 5b) ([4]; primary HTS, 10 μM): Q4
LPS % cell toxicity (primary rat microglia [5]; [23]): 0%

CC(N)CCCC(C)(C)O (stereo not shown) [Heptaminol Hydrochloride]
inhibition at 10 µM [1, 11]: 13%
Fibrin % cell toxicity (primary rat microglia [2]; [12]): 1%
inhibition at 10 µM [3, 13]: -19%
Quadrant (FIG. 5b) [4, 9]: Q4
LPS % cell toxicity (primary rat microglia [5]; [14]): 0%

COc1ccc2cc(CCC(C)=O)ccc2c1 [Nabumetone]
inhibition at 10 µM [1, 6]: 15%
Fibrin % cell toxicity (primary rat microglia [2]; [7]): 1%
inhibition at 10 µM [3, 8]: -13%
Quadrant (FIG. 5b) [4, 9]: Q4
LPS % cell toxicity (primary rat microglia [5]; [10]): 0%

COC(=O)[C@@H]1[C@H]2C[C@H]3c4[nH]c5ccccc5c4CCN3C[C@@H]2CC[C@@H]1O [Yohimbine Hydrochloride]
LPS % inhibition [1, 24]: 19%
Fibrin % cell toxicity (primary rat microglia [2]; [16]): 1%
Fibrin % inhibition [3, 25]: −8%
Quadrant (FIG. 5b) [4, 18]: Q4
LPS % cell toxicity (primary rat microglia [5]; [19]): 1%

COc1ccc(OC)c(C(O)C(C)N)c1 (stereo not shown) [Methoxamine]
inhibition at 10 µM [1, 6]: 1%
Fibrin % cell toxicity (primary rat microglia [2]; [7]): 1%
inhibition at 10 µM [3, 8]: 3%
Quadrant (FIG. 5b) [4, 9]: Q4
LPS % cell toxicity (primary rat microglia [5]; [10]): 0%

CCOC(=O)C1=C[C@@H](OC(CC)CC)[C@H](NC(C)=O)[C@@H](N)C1 [Oseltamivir Phosphate]
LPS % inhibition ([1]; primary microglia HTS, LPS stimulation, increased cell size (>800 μm^2) as marker of activation): 13%
Fibrin % cell toxicity (primary rat microglia [2]; [7]): 1%
Fibrin % inhibition ([3]; primary microglia HTS, fibrin stimulation, increased cell size (>800 μm^2) as marker of activation): −7%
Quadrant (FIG. 5b) [4, 9]: Q4
LPS % cell toxicity (primary rat microglia [5]; [10]): 0%

Cn1cnc2c1c(=O)[nH]c(=O)n2C [Theobromine]
inhibition at 10 µM [1, 15]: 18%
Fibrin % cell toxicity (primary rat microglia [2]; [16]): 0%
inhibition at 10 µM [3, 17]: 11%
Quadrant (FIG. 5b) [4, 18]: Q4
LPS % cell toxicity (primary rat microglia [5]; [19]): 1%

CC(C)NCC(O)COc1ccc(COCCOC(C)C)cc1 (stereo not shown) [Bisoprolol]
inhibition at 10 µM [1, 20]: 13%
Fibrin % cell toxicity (primary rat microglia [2]; [21]): 0%
inhibition at 10 µM [3, 22]: 1%
Quadrant (FIG. 5b) ([4]; primary HTS, 10 μM): Q4
LPS % cell toxicity (primary rat microglia [5]; [23]): 0%

CCCc1nc(C(C)(C)O)c(C(=O)OCc2oc(=O)oc2C)n1Cc1ccc(-c2ccccc2-c2nnn[nH]2)cc1 [Olmesartan Medoxomil]
inhibition at 10 µM [1, 6]: 12%
Fibrin % cell toxicity (primary rat microglia [2]; [7]): 1%
inhibition at 10 µM [3, 8]: -5%
Quadrant (FIG. 5b) [4, 9]: Q4
LPS % cell toxicity (primary rat microglia [5]; [10]): 0%

CCCCOc1ccc(CC(=O)NO)cc1 [Bufexamac]
inhibition at 10 µM [1, 20]: 17%
Fibrin % cell toxicity (primary rat microglia [2]; [21]): 1%
inhibition at 10 µM [3, 22]: -2%
Quadrant (FIG. 5b) ([4]; primary HTS, 10 μM): Q4
LPS % cell toxicity (primary rat microglia [5]; [23]): 0%

CC(C)(C)NCC(O)COc1cccc2c1CCC(=O)N2 (stereo not shown) [Carteolol]
inhibition at 10 µM [1, 20]: 7%
Fibrin % cell toxicity (primary rat microglia [2]; [21]): 0%
inhibition at 10 µM [3, 22]: 12%
Quadrant (FIG. 5b) ([4]; primary HTS, 10 μM): Q4
LPS % cell toxicity (primary rat microglia [5]; [23]): 0%

O=C(O)[C@@H](S)[C@@H](S)C(=O)O [Succimer]
inhibition at 10 µM [1, 15]: -5%
Fibrin % cell toxicity (primary rat microglia [2]; [16]): 0%
inhibition at 10 µM [3, 17]: -37%
Quadrant (FIG. 5b) [4, 18]: Q4
LPS % cell toxicity (primary rat microglia [5]; [19]): 0%

CCOC(=O)C(C)(C)Oc1ccc(Cl)cc1 [Clofibrate]
inhibition at 10 µM [1, 20]: 18%
Fibrin % cell toxicity (primary rat microglia [2]; [21]): 0%
inhibition at 10 µM [3, 22]: -20%
Quadrant (FIG. 5b) ([4]; primary HTS, 10 μM): Q4
LPS % cell toxicity (primary rat microglia [5]; [23]): 1%

CC(=O)N(CC(O)CO)c1c(I)c(C(=O)NCCO)c(I)c(C(=O)NCC(O)CO)c1I (stereo not shown) [Ioxilan]
inhibition at 10 µM [1, 11]: 8%
Fibrin % cell toxicity (primary rat microglia [2]; [12]): 0%
inhibition at 10 µM [3, 13]: 7%
Quadrant (FIG. 5b) [4, 9]: Q4
LPS % cell toxicity (primary rat microglia [5]; [14]): 0%

C[N+](C)(C)CC(O)CC(=O)O.[Cl-] (stereo not shown)
LPS % inhibition ([1]; primary HTS, 10 μM, LPS-stimulated primary microglia): 1%
Fibrin % cell toxicity (primary rat microglia [2]; [21]): 1%
Fibrin % inhibition ([3]; primary HTS, 10 μM, fibrin-stimulated primary microglia): −23%
Quadrant (FIG. 5b) ([4]; primary HTS, 10 μM): Q4
LPS % cell toxicity (primary rat microglia [5]; [23]): 0%

Nc1nc2c(c(=O)[nH]1)N(C=O)C(CNc1ccc(C(=O)N[C@@H](CCC(=O)O)C(=O)O)cc1)CN2 (stereo partly shown) [Leucovorin]
inhibition at 10 µM [1, 11]: 8%
Fibrin % cell toxicity (primary rat microglia [2]; [12]): 1%
inhibition at 10 µM [3, 13]: -29%
Quadrant (FIG. 5b) [4, 9]: Q4
LPS % cell toxicity (primary rat microglia [5]; [14]): 0%

O=C(O)c1ccccc1Nc1cccc(C(F)(F)F)c1 [Flufenamic Acid]
inhibition at 10 µM [1, 11]: -1%
Fibrin % cell toxicity (primary rat microglia [2]; [12]): 0%
inhibition at 10 µM [3, 13]: -20%
Quadrant (FIG. 5b) [4, 9]: Q4
LPS % cell toxicity (primary rat microglia [5]; [14]): 0%

COc1ccccc1Oc1c(NS(=O)(=O)c2ccc(C(C)(C)C)cc2)nc(-c2ncccn2)nc1OCCO [Bosentan]
inhibition at 10 µM [1, 20]: 10%
Fibrin % cell toxicity (primary rat microglia [2]; [21]): 1%
inhibition at 10 µM [3, 22]: -14%
Quadrant (FIG. 5b) ([4]; primary HTS, 10 μM): Q4
LPS % cell toxicity (primary rat microglia [5]; [23]): 0%

Nc1c2ccccc2nc2ccccc12 [Aminacrine]
inhibition at 10 µM [1, 6]: 118%
Fibrin % cell toxicity (primary rat microglia [2]; [7]): 72%
inhibition at 10 µM [3, 8]: 117%
Quadrant (FIG. 5b) [4, 9]: Q2
LPS % cell toxicity (primary rat microglia [5]; [10]): 67%

CC(C)(C)NC[C@H](O)COc1nsnc1N1CCOCC1 [Timolol Maleate]
LPS % inhibition [1, 24]: 19%
Fibrin % cell toxicity (primary rat microglia [2]; [16]): 0%
Fibrin % inhibition [3, 25]: −4%
Quadrant (FIG. 5b) [4, 18]: Q4
LPS % cell toxicity (primary rat microglia [5]; [19]): 0%

CC1Cc2ccccc2N1NC(=O)c1ccc(Cl)c(S(N)(=O)=O)c1 (stereo not shown) [Indapamide]
inhibition at 10 µM [1, 11]: 11%
Fibrin % cell toxicity (primary rat microglia [2]; [12]): 0%
inhibition at 10 µM [3, 13]: -14%
Quadrant (FIG. 5b) [4, 9]: Q4
LPS % cell toxicity (primary rat microglia [5]; [14]): 0%

O=C(O)Cc1cc(I)c(Oc2ccc(O)c(I)c2)c(I)c1 [Tiratricol]
inhibition at 10 µM [1, 15]: 13%
Fibrin % cell toxicity (primary rat microglia [2]; [16]): 1%
inhibition at 10 µM [3, 17]: -51%
Quadrant (FIG. 5b) [4, 18]: Q4
LPS % cell toxicity (primary rat microglia [5]; [19]): 0%

C[C@]12CCC(=O)C(O)=C1CC[C@@H]1[C@@H]2CC[C@]2(C)C(=O)CC[C@@H]12 [Formestane]
inhibition at 10 µM [1, 11]: 10%
Fibrin % cell toxicity (primary rat microglia [2]; [12]): 1%
inhibition at 10 µM [3, 13]: -6%
Quadrant (FIG. 5b) [4, 9]: Q4
LPS % cell toxicity (primary rat microglia [5]; [14]): 0%

C[N+]1(C)CCCC(OC(=O)C(O)(c2ccccc2)c2ccccc2)C1 (stereo not shown) [Mepenzolate]
inhibition at 10 µM [1, 6]: 34%
Fibrin % cell toxicity (primary rat microglia [2]; [7]): 1%
inhibition at 10 µM [3, 8]: 45%
Quadrant (FIG. 5b) [4, 9]: Q4
LPS % cell toxicity (primary rat microglia [5]; [10]): 1%

CC#CCC(C)[C@H](O)/C=C/[C@@H]1[C@H]2C/C(=C/CCCC(=O)O)C[C@H]2C[C@H]1O (stereo partly shown) [Iloprost]
inhibition at 10 µM [1, 11]: -1%
Fibrin % cell toxicity (primary rat microglia [2]; [12]): 1%
inhibition at 10 µM [3, 13]: 23%
Quadrant (FIG. 5b) [4, 9]: Q4
LPS % cell toxicity (primary rat microglia [5]; [14]): 0%
